Data taken from the NIST ThermoML archive (doi:10.1021/je401036f).
Values joined by “and” are separate entries in the source; they are usually repeats but may differ in a detail not shown here. Equal entries are not always repeated. ± gives the expanded uncertainty stated by the source.

What was measured:
[1] = xn = mol fraction of the nth substance listed; details: 101 kPa, Liquid, x2 = 0; for viscosity: Concentric cylinders viscometry; for mass density: Vibrating tube method
[2] = refractive index (Na D-line) (dimensionless); xn = mol fraction of the nth substance listed; details: 101 kPa, Liquid, Standard Abbe refractometry, x2 = 0
[3] = refractive index (Na D-line) (dimensionless); details: 101.33 kPa, Liquid, Standard Abbe refractometry
[4] = 101 kPa, Liquid; for viscosity: Concentric cylinders viscometry; for mass density: Vibrating tube method

CCCCO [butan-1-ol] + CC(O)CN
viscosity ([1]; 288.15 K): 3.367 ± 0.1 mPa·s | mass density ([1]; 288.15 K): 813.353 ± 0.23 kg/m3 | viscosity ([1]; 293.15 K): 2.914 ± 0.089 mPa·s | mass density ([1]; 293.15 K): 809.564 ± 0.23 kg/m3 | viscosity ([1]; 298.15 K): 2.539 ± 0.078 mPa·s | mass density ([1]; 298.15 K): 805.752 ± 0.24 kg/m3 | viscosity ([1]; 303.15 K): 2.228 ± 0.068 mPa·s | mass density ([1]; 303.15 K): 801.912 ± 0.24 kg/m3 | viscosity ([1]; 308.15 K): 1.962 ± 0.06 mPa·s | mass density ([1]; 308.15 K): 798.039 ± 0.24 kg/m3 | viscosity ([1]; 313.15 K): 1.739 ± 0.054 mPa·s | mass density ([1]; 313.15 K): 794.13 ± 0.24 kg/m3 | viscosity ([1]; 318.15 K): 1.547 ± 0.048 mPa·s | mass density ([1]; 318.15 K): 790.18 ± 0.24 kg/m3 | viscosity ([1]; 323.15 K): 1.382 ± 0.043 mPa·s | mass density ([1]; 323.15 K): 786.179 ± 0.24 kg/m3 | viscosity ([1]; 328.15 K): 1.239 ± 0.038 mPa·s | mass density ([1]; 328.15 K): 782.125 ± 0.24 kg/m3 | viscosity ([1]; 333.15 K): 1.138 ± 0.035 mPa·s | mass density ([1]; 333.15 K): 778.012 ± 0.24 kg/m3 | refractive index ([2]; 288.15 K): 1.4013 ± 0.0004 | refractive index ([2]; 293.15 K): 1.3992 ± 0.0004 | refractive index ([2]; 298.15 K): 1.3972 ± 0.0004 | refractive index ([2]; 303.15 K): 1.3951 ± 0.0004 | refractive index ([2]; 308.15 K): 1.393 ± 0.0004 | refractive index ([2]; 313.15 K): 1.391 ± 0.0004 | refractive index ([2]; 318.15 K): 1.3888 ± 0.0004 | refractive index ([2]; 323.15 K): 1.3867 ± 0.0004 | refractive index ([2]; 328.15 K): 1.3846 ± 0.0004 | refractive index ([2]; 333.15 K): 1.3824 ± 0.0004

CCC(C)O (stereo not given) [butan-2-ol]
refractive index ([3]; 288.15 K): 1.3995 ± 0.0004 | refractive index ([3]; 293.15 K): 1.3974 ± 0.0004 | refractive index ([3]; 298.15 K): 1.3952 ± 0.0004 | refractive index ([3]; 303.15 K): 1.393 ± 0.0004 | refractive index ([3]; 308.15 K): 1.3907 ± 0.0004 | refractive index ([3]; 313.15 K): 1.3883 ± 0.0004 | refractive index ([3]; 318.15 K): 1.3859 ± 0.0004 | refractive index ([3]; 323.15 K): 1.3835 ± 0.0004 | refractive index ([3]; 328.15 K): 1.381 ± 0.0004 | refractive index ([3]; 333.15 K): 1.3784 ± 0.0004 | viscosity ([4]; 288.15 K): 4.59 ± 0.14 mPa·s | mass density ([4]; 288.15 K): 810.524 ± 0.23 kg/m3 | viscosity ([4]; 293.15 K): 3.738 ± 0.12 mPa·s | mass density ([4]; 293.15 K): 806.487 ± 0.24 kg/m3 | viscosity ([4]; 298.15 K): 3.074 ± 0.094 mPa·s | mass density ([4]; 298.15 K): 802.373 ± 0.24 kg/m3 | viscosity ([4]; 303.15 K): 2.552 ± 0.078 mPa·s | mass density ([4]; 303.15 K): 798.174 ± 0.24 kg/m3 | viscosity ([4]; 308.15 K): 2.144 ± 0.066 mPa·s | mass density ([4]; 308.15 K): 793.881 ± 0.24 kg/m3 | viscosity ([4]; 313.15 K): 1.818 ± 0.056 mPa·s | mass density ([4]; 313.15 K): 789.487 ± 0.24 kg/m3 | viscosity ([4]; 318.15 K): 1.558 ± 0.048 mPa·s | mass density ([4]; 318.15 K): 784.988 ± 0.24 kg/m3 | viscosity ([4]; 323.15 K): 1.348 ± 0.042 mPa·s | mass density ([4]; 323.15 K): 780.38 ± 0.24 kg/m3 | viscosity ([4]; 328.15 K): 1.179 ± 0.037 mPa·s | mass density ([4]; 328.15 K): 775.656 ± 0.24 kg/m3 | viscosity ([4]; 333.15 K): 1.054 ± 0.033 mPa·s | mass density ([4]; 333.15 K): 770.82 ± 0.24 kg/m3

CCCCO [butan-1-ol]
refractive index ([3]; 288.15 K): 1.4013 ± 0.0004 | refractive index ([3]; 293.15 K): 1.3992 ± 0.0004 | refractive index ([3]; 298.15 K): 1.3972 ± 0.0004 | refractive index ([3]; 303.15 K): 1.3951 ± 0.0004 | refractive index ([3]; 308.15 K): 1.393 ± 0.0004 | refractive index ([3]; 313.15 K): 1.391 ± 0.0004 | refractive index ([3]; 318.15 K): 1.3888 ± 0.0004 | refractive index ([3]; 323.15 K): 1.3867 ± 0.0004 | refractive index ([3]; 328.15 K): 1.3846 ± 0.0004 | refractive index ([3]; 333.15 K): 1.3824 ± 0.0004 | viscosity ([4]; 288.15 K): 3.367 ± 0.1 mPa·s | mass density ([4]; 288.15 K): 813.353 ± 0.23 kg/m3 | viscosity ([4]; 293.15 K): 2.914 ± 0.089 mPa·s | mass density ([4]; 293.15 K): 809.564 ± 0.23 kg/m3 | viscosity ([4]; 298.15 K): 2.539 ± 0.078 mPa·s | mass density ([4]; 298.15 K): 805.752 ± 0.24 kg/m3 | viscosity ([4]; 303.15 K): 2.228 ± 0.068 mPa·s | mass density ([4]; 303.15 K): 801.912 ± 0.24 kg/m3 | viscosity ([4]; 308.15 K): 1.962 ± 0.06 mPa·s | mass density ([4]; 308.15 K): 798.039 ± 0.24 kg/m3 | viscosity ([4]; 313.15 K): 1.739 ± 0.054 mPa·s | mass density ([4]; 313.15 K): 794.13 ± 0.24 kg/m3 | viscosity ([4]; 318.15 K): 1.547 ± 0.048 mPa·s | mass density ([4]; 318.15 K): 790.18 ± 0.24 kg/m3 | viscosity ([4]; 323.15 K): 1.382 ± 0.043 mPa·s | mass density ([4]; 323.15 K): 786.179 ± 0.24 kg/m3 | viscosity ([4]; 328.15 K): 1.239 ± 0.038 mPa·s | mass density ([4]; 328.15 K): 782.125 ± 0.24 kg/m3 | viscosity ([4]; 333.15 K): 1.138 ± 0.035 mPa·s | mass density ([4]; 333.15 K): 778.012 ± 0.24 kg/m3

CCC(C)O (stereo not given) [butan-2-ol] + CC(O)CN
viscosity ([1]; 288.15 K): 4.59 ± 0.14 mPa·s | mass density ([1]; 288.15 K): 810.524 ± 0.23 kg/m3 | viscosity ([1]; 293.15 K): 3.738 ± 0.12 mPa·s | mass density ([1]; 293.15 K): 806.487 ± 0.24 kg/m3 | viscosity ([1]; 298.15 K): 3.074 ± 0.094 mPa·s | mass density ([1]; 298.15 K): 802.373 ± 0.24 kg/m3 | viscosity ([1]; 303.15 K): 2.552 ± 0.078 mPa·s | mass density ([1]; 303.15 K): 798.174 ± 0.24 kg/m3 | viscosity ([1]; 308.15 K): 2.144 ± 0.066 mPa·s | mass density ([1]; 308.15 K): 793.881 ± 0.24 kg/m3 | viscosity ([1]; 313.15 K): 1.818 ± 0.056 mPa·s | mass density ([1]; 313.15 K): 789.487 ± 0.24 kg/m3 | viscosity ([1]; 318.15 K): 1.558 ± 0.048 mPa·s | mass density ([1]; 318.15 K): 784.988 ± 0.24 kg/m3 | viscosity ([1]; 323.15 K): 1.348 ± 0.042 mPa·s | mass density ([1]; 323.15 K): 780.38 ± 0.24 kg/m3 | viscosity ([1]; 328.15 K): 1.179 ± 0.037 mPa·s | mass density ([1]; 328.15 K): 775.656 ± 0.24 kg/m3 | viscosity ([1]; 333.15 K): 1.054 ± 0.033 mPa·s | mass density ([1]; 333.15 K): 770.82 ± 0.24 kg/m3 | refractive index ([2]; 288.15 K): 1.3995 ± 0.0004 | refractive index ([2]; 293.15 K): 1.3974 ± 0.0004 | refractive index ([2]; 298.15 K): 1.3952 ± 0.0004 | refractive index ([2]; 303.15 K): 1.393 ± 0.0004 | refractive index ([2]; 308.15 K): 1.3907 ± 0.0004 | refractive index ([2]; 313.15 K): 1.3883 ± 0.0004 | refractive index ([2]; 318.15 K): 1.3859 ± 0.0004 | refractive index ([2]; 323.15 K): 1.3835 ± 0.0004 | refractive index ([2]; 328.15 K): 1.381 ± 0.0004 | refractive index ([2]; 333.15 K): 1.3784 ± 0.0004

CC(O)CN (stereo not given) [1-amino-2-propanol]
refractive index ([3]; 288.15 K): 1.45 ± 0.0005 | refractive index ([3]; 293.15 K): 1.448 ± 0.0005 | refractive index ([3]; 298.15 K): 1.446 ± 0.0005 | refractive index ([3]; 303.15 K): 1.444 ± 0.0005 | refractive index ([3]; 308.15 K): 1.4419 ± 0.0005 | refractive index ([3]; 313.15 K): 1.4399 ± 0.0005 | refractive index ([3]; 318.15 K): 1.4378 ± 0.0005 | refractive index ([3]; 323.15 K): 1.4358 ± 0.0005 | refractive index ([3]; 328.15 K): 1.4337 ± 0.0005 | refractive index ([3]; 333.15 K): 1.4315 ± 0.0005 | viscosity ([4]; 288.15 K): 43.7 ± 1.4 mPa·s | mass density ([4]; 288.15 K): 964.544 ± 0.8 kg/m3 | viscosity ([4]; 293.15 K): 31.68 ± 1 mPa·s | mass density ([4]; 293.15 K): 960.598 ± 0.79 kg/m3 | viscosity ([4]; 298.15 K): 23.54 ± 0.75 mPa·s | mass density ([4]; 298.15 K): 956.618 ± 0.79 kg/m3 | viscosity ([4]; 303.15 K): 17.89 ± 0.57 mPa·s and 17.9 ± 0.57 mPa·s | mass density ([4]; 303.15 K): 952.612 ± 0.78 kg/m3 | viscosity ([4]; 308.15 K): 13.88 ± 0.44 mPa·s | mass density ([4]; 308.15 K): 948.577 ± 0.78 kg/m3 | viscosity ([4]; 313.15 K): 10.96 ± 0.35 mPa·s | mass density ([4]; 313.15 K): 944.515 ± 0.77 kg/m3 | viscosity ([4]; 318.15 K): 8.798 ± 0.28 mPa·s | mass density ([4]; 318.15 K): 940.423 ± 0.77 kg/m3 | viscosity ([4]; 323.15 K): 7.166 ± 0.23 mPa·s | mass density ([4]; 323.15 K): 936.293 ± 0.76 kg/m3 | viscosity ([4]; 328.15 K): 5.915 ± 0.19 mPa·s | mass density ([4]; 328.15 K): 932.13 ± 0.76 kg/m3 | viscosity ([4]; 333.15 K): 4.986 ± 0.16 mPa·s | mass density ([4]; 333.15 K): 927.93 ± 0.75 kg/m3
